± gives the standard deviation of the averaged measurements.
Test system: HEK293 NF-kB-luciferase reporter cells
Assay: NF-kB luciferase reporter activity, robust Z-score vs plate median (robust Z-score (log luminescence)); higher = stronger NF-kB reporter activation
Settings: TNF treatment time 8.5 h, transfection time 72 h
Protocol: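 Primary screen of an Ambion Pre-miR miRNA mimic library (miRBase v8.0, 1.6 pmol/well, 384-well, duplicate) reverse-transfected into HEK293 cells stably expressing a 5x NF-kB firefly luciferase reporter. After 72 h the cells were treated with vehicle or TNF (40 ng/mL) for 8.5 h and luminescence was read (BriteLite). Raw luminescence was log-transformed and converted to a robust Z-score per plate: (x - plate median)/plate MAD. Sequence given is the mature miRNA strand of the double-stranded mimic.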

| Sequence | NF-kB luciferase reporter activity (TNF 0 ng/mL) | NF-kB luciferase reporter activity (TNF 40 ng/mL) |
| --- | --- | --- |
| AAAGCGCUUCUCUUUAGAGGA | -0.221 ± 1.4 | 0.82217 ± 0.00059 |
| AUCAGCAAACAUUUAUUGUGUG | -0.389 ± 0.14 | -0.5 ± 0.044 |
| CCCAGUGUUUAGACUAUCUGUUC | -0.547 ± 0.91 | -0.613 ± 0.27 |
| AUUCUGCAUUUUUAGCAAGU | 3.61 ± 0.35 | -0.325 ± 0.13 |
| AAGUGCUUCCUUUUAGAGGGUU | -1.7 ± 0.2 | -1.29 ± 0.042 |
| CCUCUAGAUGGAAGCACUGUCU | -0.0988 ± 0.27 | 0.749 ± 0.033 |
| CUCUAGAGGGAAGCACUUUCUCU | 1.17 ± 0.88 | 0.571 ± 0.12 |
| UAAUACUGCCUGGUAAUGAUGAC | 0.744 ± 0.84 | 1.37 ± 0.22 |
| AAAGUGCCUCCUUUUAGAGUGU | -1.14 ± 0.07 | -0.561 ± 0.048 |
| UUGUACAUGGUAGGCUUUCAUU | 0.596 ± 0.28 | 0.433 ± 0.025 |
| AUGCACCUGGGCAAGGAUUCUG | -0.197 ± 0.13 | 1.14 ± 0.15 |
| CAACGGAAUCCCAAAAGCAGCU | 0.539 ± 0.19 | 1.2 ± 0.21 |
| AGGACCUGCGGGACAAGAUUCUU | -0.175 ± 0.95 | 1.11 ± 0.19 |
| UGCUUCCUUUCAGAGGGU | 1.34 ± 0.039 | 0.941 ± 0.075 |
| CAUCUGGAGGUAAGAAGCACUUU | 0.889 ± 0.59 | -1.17 ± 0.072 |
| AGCUCGGUCUGAGGCCCCUCAG | 1.38 ± 0.13 | -1.1 ± 0.24 |
| CCUAGUAGGUGUCCAGUAAGUGU | -0.0662 ± 0.93 | 0.432 ± 0.025 |
| CAAAGCGCUUCUCUUUAGAGUG | -0.207 ± 0.29 | 0.143 ± 0.13 |
| ACAAAGUGCUUCCCUUUAGAGUGU | -0.845 ± 0.78 | -0.799 ± 0.018 |
